Among the data in the RepoRT retention time repository are LC retention time values, retold here.

This data set can be described thus: RP, Waters ACQUITY UPLC BEH C8, 100 × 2.1 mm, 1.7 µm, 55 °C, 0.6 mL/min, estimated dead time 0.37 min; A: 50% water + 25% acetonitrile + 25% isopropanol + 0.05% acetic acid + 20 µM phosphoric acid + 5 mM ammonium acetate; B: 50% acetonitrile + 50% isopropanol + 0.05% acetic acid + 5 mM ammonium acetate; gradient (min/%B) 0/1 0.1/1 2/30 11.5/90 12/99.9 12.5/99.9 12.55/65 12.65/30 12.75/1 12.95/1 13.25/1. The note with it: stereoisomer not certain.
For `CC1=CCCC(C)(C)C1/C=C/C(C)=C/C=C/C(C)=C/C=C/C=C(C)/C=C/C=C(C)/C=C/C1=C(C)CCCC1(C)C` (stereo not drawn) [Alpha-carotene], the LC retention time is 8.56 min.
For `C=C1C=CCC(C)(C)C1C=CC(C)=CC=CC(C)=CC=CC=C(C)C=CC=C(C)C=CC1=C(C)CC(O)CC1(C)C` (stereo not drawn) [Anhydrolutein I] the value was 5.77 min; for `CCCCCCCCCCCCCCCCCCCC(=O)OC(CC(=O)[O-])C[N+](C)(C)C` (stereo not drawn) [Arachidyl carnitine CAR(20:0)], 2.88 min.
To `CC1=C(/C=C/C(C)=C/C=C/C(C)=C/C=C/C=C(C)/C=C/C=C(C)/C=C/C2=C(C)CCCC2(C)C)C(C)(C)CCC1` [Beta-carotene] belongs 8.56 min; to `CC(C=CC=C(C)C=CC1=C(C)CCCC1(C)C)=CC=CC=C(C)C=CC=C(C)C=CC1=C(C)CC(O)CC1(C)C` (stereo not drawn) [Beta-cryptoxanthin], 6.41 min.
To `CCCCCCCCCCCC=CC(O)C(CO)NC(=O)CCCCCCCCCCCCCCCCCCC` (stereo not drawn) [Cer(d16:1/20:0)] belongs 7.27 min; to `CCCCCCCCCCCC=CC(O)C(CO)NC(=O)CCCCCCCCCCCCCCCCCCCCC` (stereo not drawn) [Cer(d16:1/22:0)], 7.93 min.
As to `CCCCCCCCCCCC=CC(O)C(CO)NC(=O)CCCCCCCCCCCCCCCCCCCCCCC` (stereo not drawn) [Cer(d16:1/24:0)], the LC retention time was 8.54 min.
As for `CCCCCCCCCCCCCCCCCCCCCC(=O)NC(CO)C(O)CCCCCCCCCCCCCCC` (stereo not drawn) [Cer(d18:0/22:0)], the LC retention time is 8.61 min.
As for `CCCCCCCCCCCCCCCCCCCCCCCC(=O)NC(CO)C(O)CCCCCCCCCCCCCCC` (stereo not drawn) [Cer(d18:0/24:0)], the LC retention time was 9.14 min.
To `CCCCCCCCCCCCCC=CC(O)C(CO)NC(=O)CCCCCCCCCCCCCCC` (stereo not drawn) [Cer(d18:1/16:0)] belongs 6.5 min; to `CCCCCCCCCCCCCC=CC(O)C(CO)NC(=O)CCCCCCCCCCCCCCCCC` (stereo not drawn) [Cer(d18:1/18:0)], 7.19 min.
To `CCCCCCCCCCCCCC=CC(O)C(CO)NC(=O)CCCCCCCCCCCCCCCCCCC` (stereo not drawn) [Cer(d18:1/20:0)] belongs 7.86 min; to `CCCCCCCCCCCCCC=CC(O)C(CO)NC(=O)CCCCCCCCCCCCCCCCCCCCC` (stereo not drawn) [Cer(d18:1/22:0)], 8.46 min.
For `CCCCCCCCCCCCCC=CC(O)C(CO)NC(=O)CCCCCCCCCCCCCCCCCCCCCCC` (stereo not drawn) [Cer(d18:1/24:0)], the LC retention time is 9 min.
For `CCCCCCCCCCCCCC=CC(O)C(CO)NC(=O)CCCCCCCCCCCCCCCCCCCCCCCC` (stereo not drawn) [Cer(d18:1/25:0)] the value was 9.26 min.
As for `CC(C)CCCC(C)C1CCC2C3CC=C4CC(O)CCC4(C)C3CCC12C` (stereo not drawn) [Cholesterol], the LC retention time was 4.54 min.
To `CCCCCCCCCCCCCCCC(=O)OCC(CO)OC(=O)CCCCCCCCCCCCCCC` (stereo not drawn) [DG(16:0/16:0)] belongs 7.6 min.
Regarding `CCCCCCCCCCCCCCCCCC(=O)OCC(CO)OC(=O)CCCCCCCCCCCCCCC` (stereo not drawn) [DG(18:0/16:0)], the LC retention time is 8.19 min.
In the case of `CCCCCCCCCC(=O)OC(CC(=O)[O-])C[N+](C)(C)C` (stereo not drawn) [Decanoylcarnitine CAR(10:0)], the LC retention time was 0.609 min.
To `Cc1cc(O)cc2c1OC(C)(CCCC(C)CCCC(C)CCCC(C)C)CC2` (stereo not drawn) [Delta-Tocopherol] belongs 5.02 min.
For `CC(C)=CCCC(C)=CC=CC(C)=CC=CC(C)=CC=CC=C(C)C=CC=C(C)C=CC1=C(C)CCCC1(C)C` [Gamma-carotene] the value was 8.22 min; for `CCCCCCCCCCCCCCCCCCCCCCCCCC(=O)OC(CC(=O)[O-])C[N+](C)(C)C` (stereo not drawn) [Hexacosanoylcarnitine CAR(26:0)], 5.15 min.
To `CCCCCCCCCCCCCCCC(=O)OCC(O)COP(=O)(O)O` (stereo not drawn) [LPA(16:0/0:0)] belongs 1.58 min.
Take `CCCCCCCCCCCCCC(=O)OC(CO)COP(=O)([O-])OCC[N+](C)(C)C` (stereo not drawn) [LPC(0:0/14:0)]: the LC retention time was 1.27 min.
To `CCCCCCCCCCCCCCCC(=O)OC(CO)COP(=O)([O-])OCC[N+](C)(C)C` (stereo not drawn) [LPC(0:0/16:0)] belongs 1.75 min.
To `CCCCCCCCCCCCCCCCCC(=O)OC(CO)COP(=O)([O-])OCC[N+](C)(C)C` (stereo not drawn) [LPC(0:0/18:0)] belongs 2.3 min; to `CCCCCCCCCCCCCC(=O)OCC(O)COP(=O)([O-])OCC[N+](C)(C)C` (stereo not drawn) [LPC(14:0/0:0)], 1.36 min; to `CCCCCCCCCCCCCCC(=O)OCC(O)COP(=O)([O-])OCC[N+](C)(C)C` (stereo not drawn) [LPC(15:0/0:0)], 1.61 min.
For `CCCCCCCCCCCCCCCC(=O)OCC(O)COP(=O)([O-])OCC[N+](C)(C)C` (stereo not drawn) [LPC(16:0/0:0)] the value was 1.87 min; for `CCCCCCCCCCCCCCCCC(=O)OCC(O)COP(=O)([O-])OCC[N+](C)(C)C` (stereo not drawn) [LPC(17:0/0:0)], 2.14 min; for `CCCCCCCCCCCCCCCCCC(=O)OCC(O)COP(=O)([O-])OCC[N+](C)(C)C` (stereo not drawn) [LPC(18:0/0:0)], 2.42 min.
With `CCCCCCCCCCCCCCCCCCC(=O)OCC(O)COP(=O)([O-])OCC[N+](C)(C)C` (stereo not drawn) [LPC(19:0/0:0)], the LC retention time is 2.7 min.
To `CCCCCCCCCCCCCCCCCCCC(=O)OCC(O)COP(=O)([O-])OCC[N+](C)(C)C` (stereo not drawn) [LPC(20:0/0:0)] belongs 3.02 min; to `CCCCCCCCCCCCCCCCCCCCCC(=O)OCC(O)COP(=O)([O-])OCC[N+](C)(C)C` (stereo not drawn) [LPC(22:0/0:0)], 3.73 min.
To `CCCCCCCCCCCCCCCCCCCCCCCC(=O)OCC(O)COP(=O)([O-])OCC[N+](C)(C)C` (stereo not drawn) [LPC(24:0/0:0)] belongs 4.52 min; to `CCCCCCCCCCCCCCCCOCC(O)COP(=O)([O-])OCC[N+](C)(C)C` (stereo not drawn) [LPC(O-16:0/0:0)], 2.09 min; to `CCCCCCCCCCCCCCCCCCOCC(O)COP(=O)([O-])OCC[N+](C)(C)C` (stereo not drawn) [LPC(O-18:0/0:0)], 2.66 min.
Consider `CCCCCCCCCCCCCCCCCCCCOCC(O)COP(=O)([O-])OCC[N+](C)(C)C` (stereo not drawn) [LPC(O-20:0/0:0)], for which the LC retention time was 3.31 min.
To `CCCCCCCCCCCCCCC=COCC(O)COP(=O)([O-])OCC[N+](C)(C)C` (stereo not drawn) [LPC(P-16:0/0:0)] belongs 2.09 min; to `CCCCCCCCCCCCCCCCC=COCC(O)COP(=O)([O-])OCC[N+](C)(C)C` (stereo not drawn) [LPC(P-18:0/0:0)], 2.65 min; to `CCCCCCCCCCCCCCCCCC(=O)OC(CO)COP(=O)(O)OCCN` (stereo not drawn) [LPE(0:0/18:0)], 2.38 min.
With `CCCCCCCCCCCCCCCC(=O)OCC(O)COP(=O)(O)OCCN` (stereo not drawn) [LPE(16:0/0:0)], the LC retention time was 1.93 min.
To `CCCCCCCCCCCCCCCCCC(=O)OCC(O)COP(=O)(O)OCCN` (stereo not drawn) [LPE(18:0/0:0)] belongs 2.48 min; to `CCCCCCCCCCCCCCCCC=COCC(O)COP(=O)(O)OCCN` (stereo not drawn) [LPE(P-18:0/0:0)], 2.75 min; to `CCCCCCCCCCCCCC=CC(O)C(COC1OC(CO)C(OC2OC(CO)C(O)C(O)C2O)C(O)C1O)NC(=O)CCCCCCCCCCCCCCC` (stereo not drawn) [LacCer(d18:1/16:0)], 5.75 min.
As for `CCCCCCCCCCCCCC=CC(O)C(COC1OC(CO)C(OC2OC(CO)C(O)C(O)C2O)C(O)C1O)NC(=O)CCCCCCCCCCCCCCCCCCCCC` (stereo not drawn) [LacCer(d18:1/22:0)], the LC retention time is 7.86 min.
To `CCCCCCCCCCCCCC=CC(O)C(COC1OC(CO)C(OC2OC(CO)C(O)C(O)C2O)C(O)C1O)NC(=O)CCCCCCCCCCCCCCCCCCCCCCC` (stereo not drawn) [LacCer(d18:1/24:0)] belongs 8.4 min; to `CCCCCCCCCCCC(=O)OC(CC(=O)[O-])C[N+](C)(C)C` (stereo not drawn) [Lauroylcarnitine CAR(12:0)], 0.876 min; to `CC(C=CC=C(C)C=CC1=C(C)CC(O)CC1(C)C)=CC=CC=C(C)C=CC=C(C)C=CC1C(C)=CC(O)CC1(C)C` (stereo not drawn) [Luteine], 3.74 min.
To `CCCCCCCC(=O)OC(CC(=O)O)C[N+](C)(C)C` (stereo not drawn) [Octanoylcarnitine CAR(8:0)] belongs 0.462 min; to `CCCCCCCCCCCCCCCC(=O)OCC(COP(=O)([O-])OCC[N+](C)(C)C)OC(=O)CCCCCCCCCCCCCC` (stereo not drawn) [PC(16:0/15:0)], 5.97 min.
For `CCCCCCCCCCCCCCCC(=O)OCC(COP(=O)([O-])OCC[N+](C)(C)C)OC(=O)CCCCCCCCCCCCCCC` (stereo not drawn) [PC(16:0/16:0)] the value was 6.38 min; for `CCCCCCCCCCCCCCCCC(=O)OC(COC(=O)CCCCCCCCCCCCCCC)COP(=O)([O-])OCC[N+](C)(C)C` (stereo not drawn) [PC(16:0/17:0)], 6.63 min; for `CCCCCCCCCCCCCCCCCC(=O)OCC(COP(=O)([O-])OCC[N+](C)(C)C)OC(=O)CCCCCCCCCCCCCCCCC` (stereo not drawn) [PC(18:0/18:0)], 7.67 min.
`CCCCCCCCCCCCCCCCOCC(COP(=O)([O-])OCC[N+](C)(C)C)OC(=O)CCCCCCCCCCCCC` (stereo not drawn) [PC(O-16:0/14:0)]: the LC retention time was 6.13 min.
For `CCCCCCCCCCCCCCCCOCC(COP(=O)([O-])OCC[N+](C)(C)C)OC(=O)CCCCCCCCCCCCCC` (stereo not drawn) [PC(O-16:0/15:0)] the value was 6.47 min; for `CCCCCCCCCCCCCCCCOCC(COP(=O)([O-])OCC[N+](C)(C)C)OC(=O)CCCCCCCCCCCCCCC` (stereo not drawn) [PC(O-16:0/16:0)], 6.81 min.
Consider `CCCCCCCCCCCCCCCCCCOCC(COP(=O)([O-])OCC[N+](C)(C)C)OC(=O)CCCCCCCCCCCCCCC` (stereo not drawn) [PC(O-18:0/16:0)], for which the LC retention time was 7.47 min.
To `CCCCCCCCCCCCCCCC(=O)OC(CC(=O)[O-])C[N+](C)(C)C` (stereo not drawn) [Palmitoylcarnitine CAR(16:0)] belongs 1.75 min; to `CC(C=CC1=C(C)CCCC1(C)C)=CC=CC(C)=CCO` [Retinol], 2.3 min.
To `CCCCCCCCCCCC=CC(O)C(COP(=O)([O-])OCC[N+](C)(C)C)NC(=O)CCCCCCCCCCCCCCCCCCC` (stereo not drawn) [SM(d16:1/20:0)] belongs 6.5 min; to `CCCCCCCCCCCC=CC(O)C(COP(=O)([O-])OCC[N+](C)(C)C)NC(=O)CCCCCCCCCCCCCCCCCCCCC` (stereo not drawn) [SM(d16:1/22:0)], 7.23 min.
